{"source": "patent US11197911B2", "about": "“Peptidylic inhibitors targeting C9ORF72 hexanucleotide repeat-mediated neurodegeneration” (The Chinese University of Hong Kong, priority 2016, dated 2021)", "key": {"[1]": {"test_system": "(GGGGCC)66-expressing SK-N-MC cells", "assay": "LDH cytotoxicity assay, (GGGGCC)66-induced cell death", "format": "cell-based", "conditions": "for effect on (GGGGCC)66-induced cell death (LDH enzyme activity in medium): 0.1, 1, 10 and 20 μM peptide; for suppression of (GGGGCC)66-induced cell death compared with P3L (structure-activity relationship study): 10 μM, single alanine substitution mutants", "protocol": "SK-N-MC cells were kindly provided by Prof. Dobrila D. Rudnicki (Johns Hopkins University, USA). […] Leonard Petrucelli (Mayo Clinic, USA).\nFor IC50 detection, various amount of TAT-P3L, 0.1, 0.5, 1, 10, 50, 100, 500, 1,000 and 10,000 nM were added to individual culture wells after transfection. Forty eight hours after treatment, LDH enzyme activity in the cell culture medium was measured as described before. Experimental groups were normalized to the untransfected control. After normalization, data were analyzed using the dose response-inhibition curve (nonlinear regression-variable slope) to determine the IC50 value (Prism6 software, GraphPad Software, Inc.)."}, "[2]": {"test_system": "expanded CAG repeat-mediated nucleolar stress", "conditions": "polyQ disease; inventors' previous work (ref. 20); cited from earlier work"}, "UAS-(GGGGCC)3 flies [3]": {"test_system": "UAS-(GGGGCC)3 flies", "assay": "Lifespan assay, control flies", "format": "in vivo, Drosophila", "conditions": "50 μM in food"}, "[4]": {"test_system": "GGGGCC RNA foci in (GGGGCC)66-expressing SK-N-MC cells", "assay": "RNA fluorescence in situ hybridization, GGGGCC RNA foci formation", "format": "cell-based", "conditions": "10 μM, 48 h", "protocol": "In situ hybridization was carried out to evaluate the effect of TAT-P3L on GGGGCC RNA foci formation in […]-expressing SK-N-MC cells. In brief, 0.8×10^5 SK-N-MC cells were seeded and grown on glass coverslips in 24-well plate. Ten micromolar of TAT-P3L or TAT-P3LS1 were added immediately after transfection of 1 μg of pAg3-(GGGGCC)2/66 plasmid. After 48 h, cells were fixed with 4% paraformaldehyde for 10 min and permeabilized with 0.5% Triton-X 100 for 5 min at room temperature. Cells were then washed with phosphate buffered saline treated with diethylpyrocarbonate (DEP-CPBS) three times, and hybridized with 40 nM denatured TYE563-labeled LNA probe (5′-TYE563-CCCGGCCCCGGCCCC-3′; SEQ ID NO:13; Exiqon, Inc) in hybridization buffer (50% formamide, 10% dextran sulfate, 2× saline-sodium citrate buffer (SSC), 50 mM sodium phosphate buffer) 6 h at 65° C. After washing once with 0.1% Tween-20/2×SSC for 5 min at room temperature, cell were further washed with 0.1×SSC 3 times at 65° C. for 10 min. Nuclei were counterstained with Hoechst 33342 (1 μg/ml, Thermo Fisher Scientific) prior to mounting coverslips. Images were obtained on an OLYMPUS FV1000 IX81-TIRF confocal microscope."}, "UAS-(GGGGCC)3 flies [5]": {"test_system": "UAS-(GGGGCC)3 flies", "assay": "External eye assay, control flies", "format": "in vivo, Drosophila", "conditions": "GMR-Gal4/UAS-(GGGGCC)3 flies; 100 μM feeding", "protocol": "(§1) Flies were raised at 25° C. on cornmeal medium supplemented with dry yeast. For […], third instar larvae were feed with 100 μM of TAT-P3L or TAT-P3LS1 dissolved in 2% sucrose solution for 2 h and then continued to culture in standard fly food. Eye images of 1 day-old adult of UAS-(GGGGCC)3 or UAS-(GGGGCC)36 flies were captured using a SPOT Insight CCD camera (Diagnostic instruments Inc.) on an Olympus SZX-12 stereomicroscope."}, "nucleophosmin (B23)": {"test_system": "nucleophosmin (B23)", "assay": "Immunostaining, nucleolar stress marker B23 localization", "format": "cell-based", "conditions": "(GGGGCC)66-expressing SK-N-MC cells; 10 μM; 48 h", "protocol": "(§2) SK-N-MC cells were seeded and grown on glass coverslips at a density of 0.8×10^5 in 24-well plate. Forty eight hours after treatment, cells were fixed with 4% paraformaldehyde followed by three times wash with 1×PBS. Cells were then permeabilized in 0.5% Triton X-100 for 10 min at room temperature followed by three washes with 1×PBS. After washing step, cells were blocked with 5% BSA in 1×PBS for 1 h at room temperature. The NCL (1:500, Abcam) or B23 (1:500, Abcam) antibody was then applied with 5% BSA (1:500) 2 h at room temperature. Once the primary antibody was removed, Cells were washed three times with 1×PBS and incubated with an anti-rabbit Cy3 or an anti-mouse Cy3 secondary antibody (1:400, Jackson Labs) 1 h at room temperature. After washing with 1×PBS, nuclei were counterstained with Hoechst 33342 (1 μg/ml, Thermo Fisher Scientific) prior to mounting coverslips. Images were obtained on an OLYMPUS FV1000 IX81-TIRF confocal microscope. A single focal plan was obtained through the centre of the nucleus. The method of quantification of NCL and B23 nuclear area fold change was described previously^7. In order to quantify both dispersed NCL and dense nucleolar NCL, a threshold setting in ImageJ ranging from 25-100 was used to measure the pixel area of NCL relative to the area of the nucleus outlined by the Hoechst staining. […]"}, "NCL": {"test_system": "NCL", "assay": "Immunostaining, nucleolar stress marker NCL localization", "format": "cell-based", "conditions": "(GGGGCC)66-expressing SK-N-MC cells; 10 μM; 48 h", "protocol": "as §2"}, "UAS-(GGGGCC)36 flies [6]": {"test_system": "UAS-(GGGGCC)36 flies", "assay": "External eye assay", "format": "in vivo, Drosophila", "conditions": "GMR-Gal4/UAS-(GGGGCC)36 flies; 100 μM feeding; 1 day-old adults", "protocol": "as §1"}, "UAS-(GGGGCC)36 flies [7]": {"test_system": "UAS-(GGGGCC)36 flies", "assay": "Climbing ability assay", "format": "in vivo, Drosophila", "conditions": "elavGS flies, RU486 200 μM plus peptide 50 μM in food, 10, 15, 20 and 25 dpe", "protocol": "Fly climbing ability was analyzed by negative geotaxis."}, "UAS-(GGGGCC)3 flies [8]": {"test_system": "UAS-(GGGGCC)3 flies", "conditions": "50 μM in food", "procedure": "For lifespan and climbing ability assay, flies of 2dpe were feed with food containing different drug combination including vehicle control (ethanol), Mifepristone (RU486, 200 μM), RU486 (200 μM) plus TAT-P3L (50 μM), and RU486 (200 μM) plus TAT-P3LS1 (50 μM). Mifepristone (RU486, 200 μM) was used to induce transgene expression. For climbing ability assay, 10-15 flies were allocated to each experimental vials (total of 90-100 flies per condition) and monitored every 5 days. Fly climbing ability was analyzed by negative geotaxis. Groups of ∞15 flies were anesthetized and placed in a vertical plastic column. After 1 h recovery, flies were banged to the bottom, and then scored for climbing ability as the percentage of flies remaining at the bottom (<2 cm) at 25 s. Three trials were performed at 3 min intervals in each experiment."}, "UAS-(GGGGCC)36 flies [9]": {"test_system": "UAS-(GGGGCC)36 flies", "assay": "Lifespan assay", "format": "in vivo, Drosophila", "conditions": "elavGS flies, RU486 200 μM plus peptide 50 μM in food"}}, "note": "“Also recorded” adds a separate entry of the source. No end group written: not given here.", "data": [{"substance": "TAT-RRM4-P1: TAT fusion peptide YGRKKRRQRRRRARIVTDRETGSSKGFGFVD (SEQ ID NO: 10), derived from RRM4 of NCL (synthetic peptide construct TAT-RRM4-P1)", "values": [{"measurement": "effect on (GGGGCC)66-induced cell death (LDH enzyme activity in medium)", "setting": "[1]; 48 h", "value": "did not demonstrate any modifying effect; also recorded: did not alter"}]}, {"substance": "YGRKKRRQRRRTFIKVPQNQNGKSKGYAF [TAT-RRM3-P1]", "values": [{"measurement": "cytotoxicity elicited by the peptide by itself (LDH)", "setting": "[1]; when the dose was raised", "value": "elicited cytotoxicity"}]}, {"substance": "P3: peptide DGKSKGIAYIEFK (SEQ ID NO:2), derived from RRM2 of NCL, inventors' previous work (synthetic peptide construct P3)", "values": [{"measurement": "inhibition of expanded CAG repeat-mediated nucleolar stress and neurodegeneration", "setting": "[2]", "value": "specifically inhibited expanded CAG repeat-mediated nucleolar stress"}]}, {"substance": "TAT-RRM1-P1: TAT fusion peptide YGRKKRRQRRRTGTNRKFGYVD (SEQ ID NO: 7), derived from RRM1 of NCL (synthetic peptide construct TAT-RRM1-P1)", "values": [{"measurement": "effect on (GGGGCC)66-induced cell death (LDH enzyme activity in medium)", "setting": "[1]; 48 h", "value": "did not demonstrate any modifying effect; also recorded: didn't alter"}]}, {"substance": "YGRKKRRQRRRAEIRLVSKDGKSKGIAYIEFK [TAT-P3L]", "values": [{"measurement": "lifespan of control flies", "setting": "UAS-(GGGGCC)3 flies [3]", "value": "did not alter the lifespan"}, {"measurement": "RNA foci-like structure formation in control group", "setting": "[4]", "value": "no RNA foci-like structure formed"}, {"measurement": "IC50", "setting": "[1]; 48 h, concentration reducing LDH enzyme activity by 50% vs untreated control, read-out: IC50 in suppressing (GGGGCC)66-induced cell death", "value": "104 ± 24.6", "unit": "nM"}, {"measurement": "eye defect in control flies", "setting": "UAS-(GGGGCC)3 flies [5]", "value": "did not cause any observable eye defect"}]}, {"substance": "TAT-P3LMT1: TAT-P3L mutant carrying a single alanine substitution; mutant part SEQ ID NO:14 (YGRKKRRQRRRAAIRLVSKDGKSKGIAYIEFK; synthetic peptide construct TAT; synthetic peptide mutant PL3MT1)", "values": [{"measurement": "suppression of (GGGGCC)66-induced cell death compared with P3L (structure-activity relationship study)", "setting": "[1]; 48 h", "value": "same suppression effect as the P3L peptide"}]}, {"substance": "TAT-P3LMT19: TAT-P3L mutant carrying a single alanine substitution; mutant part SEQ ID NO:32 (YGRKKRRQRRRAEIRLVSKDGKSKGIAYIEFA; synthetic peptide construct TAT; synthetic peptide mutant PL3MT19)", "values": [{"measurement": "suppression of (GGGGCC)66-induced cell death compared with P3L (structure-activity relationship study)", "setting": "[1]; 48 h", "value": "same suppression effect as the P3L peptide"}]}, {"substance": "YGRKKRRQRRRGGEDIKSRVEAASILYFIKKK [TAT-P3LS1, reference compound]", "values": [{"measurement": "RNA foci-like structure formation in control group", "setting": "[4]", "value": "no RNA foci-like structure formed"}]}, {"substance": "AEIRLVSKDGKSKGIAYIEFK [P3L]", "values": [{"measurement": "subcellular localization of B23", "setting": "nucleophosmin (B23)", "value": "restored the subcellular localization"}, {"measurement": "subcellular localization of NCL", "setting": "NCL", "value": "restored the subcellular localization"}, {"measurement": "eye degeneration (scar formation in eye)", "setting": "UAS-(GGGGCC)36 flies [6]", "value": "significantly suppressed neurodegeneration"}, {"measurement": "climbing defect", "setting": "UAS-(GGGGCC)36 flies [7]", "value": "rescued locomotor deficit"}, {"measurement": "climbing ability of control flies", "setting": "UAS-(GGGGCC)3 flies [8]", "value": "not found to be affecting the climbing ability"}, {"measurement": "lifespan (in words)", "setting": "UAS-(GGGGCC)36 flies [9]", "value": "extended lifespan"}]}]}
